Data taken from patent publication US20130195926A1, “MODULATION OF NITRIC OXIDE SIGNALING TO NORMALIZE TUMOR VASCULATURE” (The General Hospital Corporation, priority 2007, published 2013).

Test system: U87 gliomas
Assay: NO distribution in U87 gliomas by DAF-2T fluorescence (MPLSM)
Assay type: in vivo, mice
Conditions: U87 tumor with shRNA58 vs parental U87, cranial window, Rag-1-/- mice
Method: FIGS. 3A-B show microfluorographs depicting NO distribution in U87 gliomas grown in the cranial window in Rag-1^−/−. NO production was visualized by means of DAF-2T fluorescence 0, 20, 40 and 60 min after DAF-2 (0.5 mg/body) injection. Left column, micro-angiography with tetramethylrhodamine-dextran (2000 kDa). Middle column, representative DAF-2T microfluorography captured 60 min after the loading of DAF-2 in tumors. Right column, pseudocolor representation of DAF-2T microfluorographs. […] Bars indicate 100 μm. (A) NO distribution in parental U87MG (top row) or nNOS shRNA58-transfected-U87 (bottom row) tumors. […]
Vascular parameters such as functional vessel density (the total length of perfused microvessels per unit area) and vessel diameter were analyzed by tracing each vessel segment using NIH image 1.63 as described elsewhere (Kashiwagi, S., et al. 2005 J. Clin. Invest. 115, 1816-1827). Tissue distribution of NO was visualized using MPLSM and the NO-sensitive fluorescence probe 4,5-diaminofluorescein (DAF-2) (0.5 mg i.v. Daiichi Pure Chemicals Co. Ltd) as described previously (Kashiwagi, S., et al. 2005 J. Clin. Invest. 115, 1816-1827). NO converts DAF-2 to 4,5-diaminofluorescein triazolium (DAF-2T) increasing fluorescence by a factor of 200. The DAF-2 associated fluorescence images were captured 60 min after i.v. injection. […]

shRNA58: short-hairpin RNA for nNOS, CAAAGAGATCGACACCATC (sense), GATGGTGTCGATCTCTTTGTT (antisense), in pSilencer 3.1 H-1-hygro, stably transfected into U87MG
DAF-associated fluorescence (NO distribution): predominantly localized in vascular region
